Source: patent US20260116874A1, “HETEROAROMATIC INDOLESULFONAMIDES” (SEED Therapeutics, Inc., priority 2023, published 2026)

System: HCT116 colorectal cells
Assay: Cell viability assay (CellTiter-Glo) in HCT116 cells
Assay type: cell-based
Settings: Homo sapiens, HCT-116, 72h, CellTiter-Glo, read-out: HCT116 Assay (IC50)
Experimental: HCT116 colorectal cells were used in these experiments. HCT116 cells were obtained from ATCC. The CellTiter-Glo® Luminescent Cell Viability Assay Reagent was obtained from Promega.
Into a 96-well plate, 3000 HCT116 cells were seeded with 100 μL of media (McCoy's 5A Medium supplemented with 10% FBS, 100 units penicillin, and 100 μg streptomycin per mL) 24h before the experiment. For compound treatment, the liquid handling system-Pico machine was used to prepare all the compounds. Each master plate contained serial dilution of 2 compounds, including the control compound E7820. 10 mM compound stock was added to each well of the assay plate to give final concentrations of […], 0.003, 0.002 and 0 μM. Each concentration was tested in triplicate. After 72h, cell viability was determined using CellTiter-Glo Luminescent Cell Viability Assay Reagent following the manufacturer's recommended protocol. Briefly, equilibrate the assay plate and its contents at room temperature for approximately 30 minutes. 100 μL of CellTiter-Glo reagent was added to each well of the assay plate and the contents were mixed for 2 minutes at 500 rpm on an orbital shaker to induce cell lysis (Fisherbrand). The plate was incubated at room temperature for 10 minutes to stabilize luminescent signal. Then the plate was immediately placed in a plate reader (PerkinElmer Multimode Plate Reader Envision2105) and the luminescence signal (0.5 second per well integration time) was determined. IC50 values were calculated using Graphpad Prism 9 software.
Cell viability assays were performed to compare the potency of Compound 1 to Compound 143.

Compound	IC50
Cc1ncc(S(=O)(=O)Nc2cccc3c(Cl)c[nH]c23)s1 [Compound 9, N-(3-chloro-1H-indol-7-yl)-2-methylthiazole-5-sulfonamide]	500 to 1000 nM
O=S(=O)(Nc1ccc(Cl)c2c(Cl)c[nH]c12)c1cnc(C(F)(F)F)s1 [Compound 11, N-(3,4-dichloro-1H-indol-7-yl)-2-(trifluoromethyl)thiazole-5-sulfonamide]	> 1000 nM
Cc1ccc(NS(=O)(=O)c2cnc(C3CCN(C)CC3)s2)c2[nH]cc(C#N)c12 [Compound 12, N-(3-cyano-4-methyl-1H-indol-7-yl)-2-(1-methyl-4-piperidyl)thiazole-5-sulfonamide]	> 1000 nM
O=S(=O)(Nc1cccc2c(Cl)c[nH]c12)c1cnc(C(F)F)s1 [Compound 13, N-(3-chloro-1H-indol-7-yl)-2-(difluoromethyl)thiazole-5-sulfonamide]	500 to 1000 nM
O=S(=O)(Nc1ccc(Cl)c2cc[nH]c12)c1cnc(C2CCCNC2)s1 (centres unmarked) [Compound 15, N-(4-chloro-1H-indol-7-yl)-2-(piperidin-3-yl)thiazole-5-sulfonamide]	500 to 1000 nM
CN1CCCC(c2ncc(S(=O)(=O)Nc3ccc(Cl)c4cc[nH]c34)s2)C1 (centres unmarked) [Compound 16, N-(4-chloro-1H-indol-7-yl)-2-(1-methylpiperidin-3-yl)thiazole-5-sulfonamide]	> 1000 nM
Cc1ccc(NS(=O)(=O)c2cnc(N3CCOCC3)s2)c2[nH]cc(C#N)c12 [Compound 17, N-(3-cyano-4-methyl-1H-indol-7-yl)-2-morpholino-thiazole-5-sulfonamide]	500 to 1000 nM
Cc1ccc(NS(=O)(=O)c2cnc(NC(=O)OC(C)(C)C)s2)c2[nH]cc(C#N)c12 [Compound 18, tert-butyl (5-(N-(3-cyano-4-methyl-1H-indol-7-yl)sulfamoyl)thiazol-2-yl)carbamate]	500 to 1000 nM
Cc1nc(C)c(S(=O)(=O)Nc2ccc(C)c3c(C#N)c[nH]c23)s1 [Compound 21, N-(3-cyano-4-methyl-1H-indol-7-yl)-2,4-dimethylthiazole-5-sulfonamide]	500 to 1000 nM
Cc1ccc(NS(=O)(=O)c2cnc(CN3CCC(C#N)C3)s2)c2[nH]cc(C#N)c12 (centres unmarked) [Compound 24, N-(3-cyano-4-methyl-1H-indol-7-yl)-2-((3-cyanopyrrolidin-1-yl)methyl)thiazole-5-sulfonamide]	500 to 1000 nM
Cc1ccc(NS(=O)(=O)c2cnc(C3CCN(C(=O)OC(C)(C)C)CC3)s2)c2[nH]cc(C#N)c12 [Compound 25, tert-butyl 4-[5-[(3-cyano-4-methyl-1H-indol-7-yl)sulfamoyl]thiazol-2-yl]piperidine-1-carboxylate]	> 1000 nM
Cc1ccc(NS(=O)(=O)c2cnc(C3CCNCC3)s2)c2[nH]cc(C#N)c12 [Compound 26, N-(3-cyano-4-methyl-1H-indol-7-yl)-2-(4-piperidyl)thiazole-5-sulfonamide]	> 1000 nM
Cc1ccc(NS(=O)(=O)c2cnc(C3CCCNC3)s2)c2[nH]cc(C#N)c12 (centres unmarked) [Compound 27, N-(3-cyano-4-methyl-1H-indol-7-yl)-2-(piperidin-3-yl)thiazole-5-sulfonamide]	> 1000 nM
Cc1ccc(NS(=O)(=O)c2cnc(C3CCCN(C)C3)s2)c2[nH]cc(C#N)c12 (centres unmarked) [Compound 28, N-(3-cyano-4-methyl-1H-indol-7-yl)-2-(1-methylpiperidin-3-yl)thiazole-5-sulfonamide]	> 1000 nM
CC(=O)N1CCC(c2ncc(S(=O)(=O)Nc3ccc(C)c4c(C#N)c[nH]c34)s2)CC1 [Compound 29, 2-(1-acetyl-4-piperidyl)-N-(3-cyano-4-methyl-1H-indol-7-yl)thiazole-5-sulfonamide]	> 1000 nM
Cc1ncc(S(=O)(=O)N(C)c2ccc(C)c3c(C#N)c[nH]c23)s1 [Compound 30, N-(3-cyano-4-methyl-1H-indol-7-yl)-N,2-dimethyl-thiazole-5-sulfonamide]	> 1000 nM
Cc1ccc(NS(=O)(=O)c2cnc(C3(N4CCOCC4)CCC3)s2)c2[nH]cc(C#N)c12 [Compound 32, N-(3-cyano-4-methyl-1H-indol-7-yl)-2-(1-morpholinocyclobutyl)thiazole-5-sulfonamide]	500 to 1000 nM
Cc1ccc(NS(=O)(=O)c2ccn3cc(C#N)nc3c2)c2[nH]cc(C#N)c12 [Compound 40]	500 to 1000 nM
Cc1ccc(NS(=O)(=O)c2ccc3nccn3c2)c2[nH]cc(C#N)c12 [Compound 41]	500 to 1000 nM
Cc1ccc(NS(=O)(=O)c2ccc3nc(C#N)cn3c2)c2[nH]cc(C#N)c12 [Compound 42]	> 1000 nM
Cc1ccc(NS(=O)(=O)c2cnn3c2CCC3)c2[nH]cc(C#N)c12 [Compound 43]	500 to 1000 nM
Cc1ccc(NS(=O)(=O)c2cc3n(n2)CCC3)c2[nH]cc(C#N)c12 [Compound 44]	500 to 1000 nM
Cc1ccc(NS(=O)(=O)c2cnc(OCC(=O)N3CCCC3C#N)s2)c2[nH]cc(C#N)c12 (centres unmarked) [Compound 65]	> 1000 nM
O=S(=O)(Nc1ccc(Cl)c2c(Cl)c[nH]c12)c1cnc(C2(N3CCOCC3)CCC2)s1 [Compound 75]	500 to 1000 nM
O=S(=O)(Nc1ccc(Cl)c2c(Cl)c[nH]c12)c1cscn1 [Compound 84]	500 to 1000 nM
Cc1ccc(NS(=O)(=O)c2cscn2)c2[nH]cc(C#N)c12 [Compound 85]	500 to 1000 nM
Cc1ccc(NS(=O)(=O)c2cnc(N(C)S(C)(=O)=O)s2)c2[nH]cc(C#N)c12 [Compound 91]	< 500 nM

Continued, values first:

IC50	Compound
500 to 1000 nM	Cc1ncc(S(=O)(=O)Nc2ccc(Cl)c3c(Cl)c[nH]c23)s1 [Compound 4, N-(3,4-dichloro-1H-indol-7-yl)-2-methyl-thiazole-5-sulfonamide]
500 to 1000 nM	Cc1ncc(S(=O)(=O)Nc2ccc(C)c3c(C(F)F)c[nH]c23)s1 [Compound 5, N-(3-(difluoromethyl)-4-methyl-1H-indol-7-yl)-2-methylthiazole-5-sulfonamide]
< 500 nM	Cc1ncc(S(=O)(=O)Nc2ccc(Cl)c3c(C#N)c[nH]c23)s1 [Compound 6, N-(4-chloro-3-cyano-1H-indol-7-yl)-2-methyl-thiazole-5-sulfonamide]
< 500 nM	COCCc1ncc(S(=O)(=O)Nc2ccc(C)c3c(C#N)c[nH]c23)s1 [Compound 7, N-(3-cyano-4-methyl-1H-indol-7-yl)-2-(2-methoxyethyl)thiazole-5-sulfonamide]
> 1000 nM	Cc1ncc(CS(=O)(=O)Nc2ccc(C)c3c(C#N)c[nH]c23)s1 [Compound 8, N-(3-cyano-4-methyl-1H-indol-7-yl)-1-(2-methylthiazol-5-yl)methanesulfonamide]
> 1000 nM	Cc1ccc(NS(=O)(=O)c2cnc(C(F)(F)F)s2)c2[nH]cc(C#N)c12 [Compound 10, N-(3-cyano-4-methyl-1H-indol-7-yl)-2-(trifluoromethyl)thiazole-5-sulfonamide]
500 to 1000 nM	Cc1ccc(NS(=O)(=O)c2cnc(N)s2)c2[nH]cc(C#N)c12 [Compound 19, 2-amino-N-(3-cyano-4-methyl-1H-indol-7-yl)thiazole-5-sulfonamide]
500 to 1000 nM	Cc1ccc(NS(=O)(=O)c2cnc(C(C)N(C)C)s2)c2[nH]cc(C#N)c12 (centres unmarked) [Compound 23, N-(3-cyano-4-methyl-1H-indol-7-yl)-2-(1-(dimethylamino)ethyl)thiazole-5-sulfonamide]
> 1000 nM	Cc1ncc(S(=N)(=O)Nc2ccc(C)c3c(C#N)c[nH]c23)s1 (centres unmarked) [Compound 33, 4-methyl-7-[[(2-methylthiazol-5-yl)sulfonimidoyl]amino]-1H-indole-3-carbonitrile]
500 to 1000 nM	CC(=O)Nc1ncc(S(=O)(=O)Nc2ccc(C)c3c(C#N)c[nH]c23)s1 [Compound 34, N-(5-(N-(3-cyano-4-methyl-1H-indol-7-yl)sulfamoyl)thiazol-2-yl)acetamide]
500 to 1000 nM	Cc1ccc(NS(=O)(=O)c2cnc(C(C)(C)O)s2)c2[nH]cc(C#N)c12 [Compound 35, N-(3-cyano-4-methyl-1H-indol-7-yl)-2-(1-hydroxy-1-methyl-ethyl)thiazole-5-sulfonamide]
< 500 nM	COc1ncc(S(=O)(=O)Nc2ccc(C)c3c(C#N)c[nH]c23)s1 [Compound 90]
500 to 1000 nM	[2H]C([2H])([2H])c1ncc(S(=O)(=O)Nc2ccc(C)c3c(Cl)c[nH]c23)s1 [Compound 92]
> 1000 nM	C#Cc1c[nH]c2c(NS(=O)(=O)c3cnc(C)s3)ccc(C)c12 [Compound 104]
